Test results: patent publication US4740233A, “Substituted 1,2,4-triazolo[1,5-a]-pyrimidine-2-sulfonamides and compositions and methods of controlling undesired vegetation and suppressing the nitrification of ammonium nitrogen in soil” (The Dow Chemical Company, priority 1986, dated 1988)

Legend:
cotton = experiment: Preemergent control of plant species; format: in vivo, Gossypium spp.; settings: Gossypium hirsutum, pre-emergence, 336 h; 0.25 lb/acre; read-out: percent preemergent control
Method in brief: (§1)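 Test compositions were applied evenly to the surface of freshly seeded soil beds and kept under greenhouse conditions for two weeks. Percent control reflects growth reduction compared with water-treated beds of the same species.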

rape = experiment: Preemergent control of plant species; format: in vivo, Brassica napus; settings: Brassica napus, pre-emergence, 336 h; 0.25 lb/acre; read-out: percent preemergent control
Method in brief: as §1

soybean = experiment: Preemergent control of plant species; format: in vivo, Glycine max.; settings: Glycine max, pre-emergence, 336 h; 0.25 lb/acre; read-out: percent preemergent control
Method in brief: as §1

sugar beet = experiment: Preemergent control of plant species; format: in vivo, Beta saccharifera; settings: Beta vulgaris, pre-emergence, 336 h; 0.25 lb/acre; read-out: percent preemergent control
Method in brief: as §1

jimsonweed = experiment: Preemergent control of plant species; format: in vivo, Datura stramonium; settings: Datura stramonium, pre-emergence, 336 h; 0.25 lb/acre; read-out: percent preemergent control
Method in brief: as §1

annual morning glory = experiment: Preemergent control of plant species; format: in vivo, Ipomoea spp.; settings: Ipomoea, pre-emergence, 336 h; 0.25 lb/acre; read-out: percent preemergent control
Method in brief: as §1

velvetleaf = experiment: Preemergent control of plant species; format: in vivo, Abutilon theophrasti; settings: Abutilon theophrasti, pre-emergence, 336 h; 0.25 lb/acre; read-out: percent preemergent control
Method in brief: as §1

corn = experiment: Preemergent control of plant species; format: in vivo, Zea mays; settings: Zea mays, pre-emergence, 336 h; 0.25 lb/acre; read-out: percent preemergent control
Method in brief: as §1

rice = experiment: Preemergent control of plant species; format: in vivo, Oryza sativa; settings: Oryza sativa, pre-emergence, 336 h; 0.25 lb/acre; read-out: percent preemergent control
Method in brief: as §1

sorghum = experiment: Preemergent control of plant species; format: in vivo, Sorghum vulgare; settings: Sorghum, pre-emergence, 336 h; 0.25 lb/acre; read-out: percent preemergent control
Method in brief: as §1

wheat = experiment: Preemergent control of plant species; format: in vivo, Triticum aestivum; settings: Triticum aestivum, pre-emergence, 336 h; 0.25 lb/acre; read-out: percent preemergent control
Method in brief: as §1

barnyardgrass = experiment: Preemergent control of plant species; format: in vivo, Echinochloa crusgalli; settings: Echinochloa crus-galli, pre-emergence, 336 h; 0.25 lb/acre; read-out: percent preemergent control
Method in brief: as §1

johnson grass = experiment: Preemergent control of plant species; format: in vivo, Sorghum halepense; settings: Sorghum halepense, pre-emergence, 336 h; 0.25 lb/acre; read-out: percent preemergent control
Method in brief: as §1

yellow foxtail = experiment: Preemergent control of plant species; format: in vivo, Setaria lutescens; settings: Setaria, pre-emergence, 336 h; 0.25 lb/acre; read-out: percent preemergent control
Method in brief: as §1

yellow nutsedge = experiment: Preemergent control of plant species; format: in vivo, Cyperus esculentus; settings: Cyperus, pre-emergence, 336 h; 0.25 lb/acre; read-out: percent preemergent control
Method in brief: as §1

corn (First In) = experiment: Gametocidal activity in corn, postemergent application; format: in vivo; settings: sprayed at three leaf stage
Protocol: The compounds of this invention are also plant gametocides depending on the dosage and timing of application and the species of plant to which the compounds are applied. For example, certain of the compounds were sprayed on corn seedlings at the three leaf stage of growth, and the seedlings were returned to the greenhouse for subsequent growth and observation. The corn variety was "First In". The chemicals were dissolved in acetone, and the acetone solution was diluted with water containing Tween 20 wetting agent such that the final spray solution contained 50% acetone and 0.1% Tween 20 in water. […] Tabulated below are data which illustrate the use of the compounds of this invention as plant gametocides in corn.

CCCCC(=O)N(c1c(F)cccc1F)S(=O)(=O)c1nc2nc(C)ccn2n1 [Compound 279]
plant injury at 280.212 g/ha (cotton): 90% | plant injury at 280.212 g/ha (rape): 100% | plant injury at 280.212 g/ha (soybean): 20% | plant injury at 280.212 g/ha (sugar beet): 100% | pest or weed control at 280.212 g/ha (jimsonweed): 100% | pest or weed control at 280.212 g/ha (annual morning glory): 90% | pest or weed control at 280.212 g/ha (velvetleaf): 100% | plant injury at 280.212 g/ha (corn): 80% | plant injury at 280.212 g/ha (rice): 100% | plant injury at 280.212 g/ha (sorghum): 100% | plant injury at 280.212 g/ha (wheat): 90% | pest or weed control at 280.212 g/ha (barnyardgrass): 100% | pest or weed control at 280.212 g/ha (johnson grass): 100% | pest or weed control at 280.212 g/ha (yellow foxtail): 100% | pest or weed control at 280.212 g/ha (yellow nutsedge): 100% | concentration required to produce 100% control (gametocidal activity) (corn (First In)): 50 ppm

CC(=O)N(c1c(F)cccc1F)S(=O)(=O)c1nc2nc(C)ccn2n1 [Compound 275]
plant injury at 280.212 g/ha (cotton): 100% | plant injury at 280.212 g/ha (rape): 100% | plant injury at 280.212 g/ha (soybean): 20% | plant injury at 280.212 g/ha (sugar beet): 100% | pest or weed control at 280.212 g/ha (jimsonweed): 100% | pest or weed control at 280.212 g/ha (annual morning glory): 90% | pest or weed control at 280.212 g/ha (velvetleaf): 100% | plant injury at 280.212 g/ha (corn): 80% | plant injury at 280.212 g/ha (rice): 90% | plant injury at 280.212 g/ha (sorghum): 100% | plant injury at 280.212 g/ha (wheat): 100% | pest or weed control at 280.212 g/ha (barnyardgrass): 100% | pest or weed control at 280.212 g/ha (johnson grass): 100% | pest or weed control at 280.212 g/ha (yellow foxtail): 100% | pest or weed control at 280.212 g/ha (yellow nutsedge): 100% | concentration required to produce 100% control (gametocidal activity) (corn (First In)): 400 ppm

Cc1ccn2nc(S(=O)(=O)N(C(=O)C(C)C)c3c(F)cccc3F)nc2n1 [Compound 277]
plant injury at 280.212 g/ha (cotton): 50% | plant injury at 280.212 g/ha (rape): 100% | plant injury at 280.212 g/ha (soybean): 20% | plant injury at 280.212 g/ha (sugar beet): 100% | pest or weed control at 280.212 g/ha (jimsonweed): 100% | pest or weed control at 280.212 g/ha (annual morning glory): 30% | pest or weed control at 280.212 g/ha (velvetleaf): 100% | plant injury at 280.212 g/ha (corn): 40% | plant injury at 280.212 g/ha (rice): 80% | plant injury at 280.212 g/ha (sorghum): 90% | plant injury at 280.212 g/ha (wheat): 80% | pest or weed control at 280.212 g/ha (barnyardgrass): 90% | pest or weed control at 280.212 g/ha (johnson grass): 100% | pest or weed control at 280.212 g/ha (yellow foxtail): 100% | pest or weed control at 280.212 g/ha (yellow nutsedge): 100% | concentration required to produce 100% control (gametocidal activity) (corn (First In)): 200 ppm
